In patent US12152038B2, “Vasopressin receptor antagonists and products and methods related thereto” (Neumora Therapeutics, Inc., priority 2017, dated 2024) one finds IC50 data, which are given here for 46 molecules.

Some results are limits rather than exact numbers.

This assay addresses T1, human Arginine Vasopressin Receptor 1a (AVPR1a) (Homo sapiens, UniProt P37288).
T1 construct: expressed in transfected cells; host or cells: CHO (CHO-AVPR1a, kept under G418 selection)
Briefly: Vasopressin V1a receptor antagonist assay (FLIPR calcium, CHO-AVPR1a cells). It counts as cell-based. In short, it runs like this:
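CHO cells expressing human AVPR1a were loaded with Calcium-6 dye and preincubated with compound for 15 min at 37° C. Cells were then challenged with AVP at its daily-determined EC80, and FLIPR fluorescence was read. Compounds were tested in duplicate as 10-point 1:3 dilutions from a top final concentration of 3 μM.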

T1 sequence (P37288 whole entry): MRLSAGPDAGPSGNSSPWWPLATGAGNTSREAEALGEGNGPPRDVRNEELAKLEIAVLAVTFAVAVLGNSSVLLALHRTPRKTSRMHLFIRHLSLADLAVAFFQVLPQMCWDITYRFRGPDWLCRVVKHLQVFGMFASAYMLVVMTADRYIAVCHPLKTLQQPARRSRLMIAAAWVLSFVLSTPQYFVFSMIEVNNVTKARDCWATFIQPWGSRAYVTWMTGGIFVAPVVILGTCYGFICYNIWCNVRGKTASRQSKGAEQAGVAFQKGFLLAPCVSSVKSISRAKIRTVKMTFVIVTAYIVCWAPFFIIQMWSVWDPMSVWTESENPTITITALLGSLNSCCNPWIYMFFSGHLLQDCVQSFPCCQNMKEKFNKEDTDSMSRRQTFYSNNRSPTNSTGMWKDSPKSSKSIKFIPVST

Usually IC50 stands for the midpoint of a concentration-inhibition curve. Regarding `CC1COc2cc(F)ccc2N1C(=O)N1CC2(C1)CN(c1ccc(F)cn1)C2` (single isomer, unassigned) [12-1-B], the 50% inhibitory concentration (IC50) is < 100 nM.

For `Cc1cnc(N2CC3(CN(C(=O)N4c5ccc(Cl)cc5OCC4C)C3)C2)nc1` (stereo not shown) [20-13], the IC50 is < 100 nM.

Regarding `Cc1ccnc(N2CC3(CN(C(=O)N4c5ccc(Cl)cc5OCC4C)C3)C2)n1` (stereo not shown) [20-12], the IC50 was < 100 nM.

As to `CC1CN(C(=O)N2CC3(C2)CN(c2ccc(F)cn2)C3)c2ccc(F)cc2O1` (single isomer, unassigned) [9-4-B], the IC50 is < 100 nM.

As to `O=C(N1CC2(C1)CN(c1cnccn1)C2)N1CCC(O)c2cc(Cl)ccc21` (stereo not shown) [13-3], the IC50 is < 100 nM.

Consider `O=C(N1CC2(C1)CN(c1cc(F)ccn1)C2)N1CCc2cc(Cl)ccc21` [1-79], for which the IC50 was < 100 nM.

Consider `CC1COc2cc(Cl)c(F)cc2N1C(=O)N1CC2(C1)CN(c1ncccn1)C2` (stereo not shown) [19-2], for which the IC50 is < 100 nM.

In the case of `CC1COc2cc(F)c(F)cc2N1C(=O)N1CC2(C1)CN(c1cccnn1)C2` (stereo not shown) [19-3], the IC50 is < 100 nM.

For `CC1COc2cc(F)ccc2N1C(=O)N1CC2(C1)CN(c1ccc(F)cn1)C2` (stereo not shown) [12-1, (7-fluoro-3-methyl-2,3-dihydro-4H-benzo[b][1,4]oxazin-4-yl)(6-(5-fluoropyridin-2-yl)-2,6-diazaspiro[3.3]heptan-2-yl)methanone], the IC50 is < 100 nM.

Turning to `CC1COc2cc(Cl)ccc2N1C(=O)N1CC2(C1)CN(c1cccnc1)C2` (stereo not shown) [20-1, (7-chloro-3-methyl-2,3-dihydro-4H-benzo[b][1,4]oxazin-4-yl)(6-(pyridin-3-yl)-2,6-diazaspiro[3.3]heptan-2-yl)methanone], the IC50 was < 100 nM.

`O=C(N1CC2(C1)CN(c1ccc(F)cn1)C2)N1CCOc2cc(F)c(F)cc21` [9-6]: the IC50 is < 100 nM.

As to `CC1COc2cc(Cl)ccc2N1C(=O)N1CC2(C1)CN(c1cccnn1)C2` (single isomer, unassigned) [9-1-A], the IC50 was ≥ 1000 nM.

Take `Cc1cncc(N2CC3(CN(C(=O)N4c5ccc(F)cc5OCC4C)C3)C2)n1` (single isomer, unassigned) [20-2-B]: the IC50 was < 100 nM.

For the molecule `O=C(N1CC2(C1)CN(c1cnccn1)C2)N1CCC(O)c2cc(Cl)ccc21` (single isomer, unassigned) [13-3-A], the IC50 is < 100 nM.

For `Cc1cccnc1N1CC2(CN(C(=O)N3CCOc4cc(Cl)ccc43)C2)C1` [1-5], the IC50 is < 100 nM.

As to `O=C(N1CC2(C1)CN(c1ccccn1)C2)N1CCC(O)c2cc(Cl)ccc21` (single isomer, unassigned) [13-2-A], the IC50 is < 100 nM.

As to `CC1COc2cc(F)ccc2N1C(=O)N1CC2(C1)CN(c1ncccn1)C2` (stereo not shown) [18-1, (7-fluoro-3-methyl-2,3-dihydro-4H-benzo[b][1,4]oxazin-4-yl)(6-(pyrimidin-2-yl)-2,6-diazaspiro[3.3]heptan-2-yl)methanone], the IC50 was < 100 nM.

As to `Cc1nc(N2CC3(CN(C(=O)N4CCOc5cc(Cl)ccc54)C3)C2)ncc1F` [6-1, (7-chloro-2,3-dihydro-4H-benzo[b][1,4]oxazin-4-yl)(6-(5-fluoro-4-methylpyrimidin-2-yl)-2,6-diazaspiro[3.3]heptan-2-yl)methanone], the IC50 is < 100 nM.

For `CC1COc2cc(F)c(F)cc2N1C(=O)N1CC2(C1)CN(c1ccc(F)cn1)C2` (single isomer, unassigned) [19-5-B], the IC50 is < 100 nM.

In the case of `CC1Cc2cc(Cl)ccc2N1C(=O)N1CC2(C1)CN(c1ccc(F)cn1)C2` (stereo not shown) [8-16], the IC50 was < 100 nM.

As to `CC1COc2cc(Cl)ccc2N1C(=O)N1CC2(C1)CN(c1cc(C#N)ccn1)C2` (single isomer, unassigned) [20-6-B], the IC50 is < 100 nM.

Take `CC1COc2cc(Cl)ccc2N1C(=O)N1CC2(C1)CN(c1cc(C#N)ccn1)C2` (stereo not shown) [20-6]: the IC50 is < 100 nM.

Turning to `CC1CN(C(=O)N2CC3(C2)CN(c2ccc(F)cn2)C3)c2ccc(Cl)cc2O1` (single isomer, unassigned) [9-3-A], the IC50 is < 100 nM.

As to `O=C(N1CC2(C1)CN(c1ccccn1)C2)N1CCc2cc(Cl)ccc21` [1-77], the IC50 was < 100 nM.

In the case of `CC1COc2cc(F)c(F)cc2N1C(=O)N1CC2(C1)CN(c1ncccn1)C2` (stereo not shown) [19-1, (6,7-difluoro-3-methyl-2,3-dihydro-4H-benzo[b][1,4]oxazin-4-yl)(6-(pyrimidin-2-yl)-2,6-diazaspiro[3.3]heptan-2-yl)methanone], the IC50 is < 100 nM.

On to `O=C(N1CC2(C1)CN(c1ccc(F)cn1)C2)N1CCC(F)c2cc(Cl)ccc21` (stereo not shown) [14-1, (6-chloro-4-fluoro-3,4-dihydroquinolin-1(2H)-yl)(6-(5-fluoropyridin-2-yl)-2,6-diazaspiro[3.3]heptan-2-yl)methanone], for which the IC50 is < 100 nM.

Consider `O=C(N1CC2(C1)CN(c1cccnn1)C2)N1CCOc2cc(Cl)c(F)cc21` [1-81], for which the IC50 is < 100 nM.

For `Cc1nc(N2CC3(CN(C(=O)N4c5ccc(Cl)cc5OCC4C)C3)C2)ncc1F` (stereo not shown) [20-7], the IC50 was < 100 nM.

Regarding `O=C(N1CC2(C1)CN(c1cnccn1)C2)N1CCOCc2cc(Cl)ccc21` [8-13], the IC50 was < 100 nM.

On to `O=C(N1CC2(C1)CN(c1ncccn1)C2)N1CCOc2cc(Cl)ccc21` [1-4], for which the IC50 was < 100 nM.

Regarding `COc1ccnc(N2CC3(CN(C(=O)N4CCOc5cc(Cl)ccc54)C3)C2)c1` [1-15], the IC50 was < 100 nM.

Consider `COc1ccc2c(c1)OCCN2C(=O)N1CC2(C1)CN(c1ccc(F)cn1)C2` [9-2], for which the IC50 is < 100 nM.

As for `O=C(N1CC2(C1)CN(c1ncc(F)cn1)C2)N1CCOc2cc(Cl)ccc21` [4-2], the IC50 is < 100 nM.

Consider `Cc1cnc(N2CC3(CN(C(=O)N4c5ccc(Cl)cc5OCC4C)C3)C2)cn1` (single isomer, unassigned) [20-5-B], for which the IC50 is < 100 nM.

Turning to `CCC1COc2cc(Cl)ccc2N1C(=O)N1CC2(C1)CN(c1ccccn1)C2` (stereo not shown) [11-1, (7-chloro-3-ethyl-2,3-dihydro-4H-benzo[b][1,4]oxazin-4-yl)(6-(pyridin-2-yl)-2,6-diazaspiro[3.3]heptan-2-yl)methanone], the IC50 was < 100 nM.

As to `O=C(N1CC2(C1)CN(c1cccc(F)n1)C2)N1CCc2cc(Cl)ccc21` [1-78], the IC50 was < 100 nM.

Take `Cc1ccnc(N2CC3(CN(C(=O)N4CCOc5cc(Cl)ccc54)C3)C2)c1` [1-14]: the IC50 is < 100 nM.

As for `Cc1nc(N2CC3(CN(C(=O)N4c5ccc(Cl)cc5OCC4C)C3)C2)ncc1F` (single isomer, unassigned) [20-7-B], the IC50 was < 100 nM.

As for `O=C(N1CC2(C1)CN(c1noc3ccccc13)C2)N1CCOc2cc(Cl)ccc21` [4-1, (6-(benzo[d]isoxazol-3-yl)-2,6-diazaspiro[3.3]heptan-2-yl)(7-chloro-2,3-dihydro-4H-benzo[b][1,4]oxazin-4-yl)methanone], the half-maximal inhibitory concentration (IC50) was < 100 nM.

`CC1COc2cc(Cl)ccc2N1C(=O)N1CC2(C1)CN(c1cccnc1)C2` (single isomer, unassigned) [20-1-B]: the IC50 was < 100 nM.

As to `CC1COc2cc(Cl)c(F)cc2N1C(=O)N1CC2(C1)CN(c1cccnc1)C2` (stereo not shown) [19-6], the IC50 was < 100 nM.

`O=C(N1CC2(C1)CN(c1ncccc1F)C2)N1CCc2cc(Cl)ccc21` [1-76]: the IC50 was < 100 nM.

`CC1COc2cc(F)c(F)cc2N1C(=O)N1CC2(C1)CN(c1cccnn1)C2` (single isomer, unassigned) [19-3-B]: the IC50 is < 100 nM.

Regarding `CC1COc2cc(Cl)ccc2N1C(=O)N1CC2(C1)CN(c1cccnn1)C2` (stereo not shown) [9-1, (7-chloro-3-methyl-2,3-dihydro-4H-benzo[b][1,4]oxazin-4-yl)(6-(pyridazin-3-yl)-2,6-diazaspiro[3.3]heptan-2-yl)methanone], the IC50 was < 100 nM.

On to `CC1COc2cc(F)ccc2N1C(=O)N1CC2(C1)CN(c1ncc(F)cn1)C2` (single isomer, unassigned) [18-4-B], for which the IC50 is < 100 nM.

Turning to `CC1CN(C(=O)N2CC3(C2)CN(c2ccc(F)cn2)C3)c2ccc(Cl)cc2O1` (stereo not shown) [9-3], the IC50 was < 100 nM.
